Laboratory results from patent US4416877A, “Anti-atherosclerotic pharmaceutical compositions containing diphosphonate compounds” (priority 1979, dated 1983).
Where two headings read alike, the source gives them in different places.

Experiments:
HDL cholesterol = conditions: rats; Day et al., Muller and Cortesi; cited from earlier work
[1] = system: alpha/beta cholesterol ratio; experiment: Comparison of clofibrate, gemfibrozil and fenofibrate to compound 16: alpha/beta cholesterol ratio in normal Wistar rats; assay type: in vivo; conditions: 100 mg/kg for 10 days, n = 5
Protocol: It should be noted that these diphosphonate compounds are different and novel in comparison to the classical hypolipidemic compounds as illustrated in Table V. The diphosphonate ester used for comparison was the only one to increase the alpha/beta cholesterol ratio in control rats.
Each drug was administered at 100 mg/kg for 10 days

tissue cholesterol = experiment: Effects in cholesterol fed rats (serum, liver and aorta lipids); assay type: in vivo; conditions: Rattus norvegicus; cholesterol fed rats (C.F), 200 mg/kg/day; read-out: Liver Chol. (% control values)
Protocol: Effects of diphosphonates of formula (I) in cholesterol fed rats
In order to increase tissue cholesterol, especially liver, rats were fed a high fat-high cholesterol diet for 10 days to 3 months, with the following diet composition: casein 20%, butter 37%, cellulose 9.1%, dextrose 18,9%, cholesterol 4.5%, sodium cholate 1.8%, minerals 7.3%, vitamins 1%, choline 0.4%.
The rats were then fed normal food and were treated for 10 days to 3 months with different compounds (200 mg/kg/day). Serum parameters described above were measured. Liver and aorta lipids were extracted according to J. Folch et al (J. Biochem. 226, 497, 1957). Total lipids were determined by the sulfophosphovanillic reaction (see N. Zolner and K. Kirsch, Z. Ges. exp. Med. 135, 545, 1962) and cholesterol by the Liebermann-Burchard reaction or appropriate enzymatic reaction.
(§1) In above Table IV, results are given as % control values. Except for serum calcium, values which differ from control values by less than 15% are considered as non significant (NS).
Serum free fatty acids, triglycerides and phospholipids were measured in normal rats (N) and rats previously fed a cholesterol diet for 10 days (C.F.)
(§2) Serum α/β cholesterol, total lipids and cholesterol of liver and aorta were determined in normal rats (N) and rats which had previously been fed on high cholesterol diet (C.F.)

lipid metabolism = experiment: Effects of diphosphonates on lipid metabolism in normal rats (serum lipids, α/β cholesterol); assay type: in vivo, male Wistar rats; conditions: for change in vivo at 200 mg/kg/day: Rattus norvegicus, po, normal rats (N), 200 mg/kg/day p.o.
Protocol: Effects of diphosphonates of formula (I) on lipid metabolism in normal rats Groups of 4 to 5 normal male Wistar rats, weighing about 200 g were treated with diphosphonates (200 mg/kg/day) p.o. for 4 to 21 days. Water soluble compounds were given in solution in 24 mM bicarbonate buffer. Lipid soluble compounds were given in corn oil. The rats were weighed, sacrificed by decapitation (under light ether anesthesia) after overnight fasting. Blood was collected and serum used for analysis. The following blood parameters reflecting changes in lipid metabolism are reported: […]
free fatty acids measured according to W. G. Duncombe (Clin. Acta 9, 122, 1964) triglycerides enzymatic method (Boehringer Mannheim Kit 126 012) phospholipids: molybdate/vanadate reaction (Boehringer Mannheim Kit 124 974) β-lipoprotein cholesterol was measured after heparin, CaCl2 precipitation according to M. Burstein et al. (La Presse Medicale 43, 974, 1958) and to D. Watson (Clin. Chim. Acta 5, 637, 1960).
as §1
as §2, with “Serum free fatty acids, triglycerides and phospholipids were measured in normal rats (N) and rats previously fed a cholesterol diet for 10 days (C.F.) Serum” for “Serum”

SMILES: CCOC(=O)C(C)(C)Oc1ccc(Cl)cc1 [Clofibrate, reference compound]
- HDL cholesterol (HDL cholesterol): decreases HDL cholesterol
- alpha/beta Cholesterol Ratio [1]: 2.76 ± 0.40
- change in vivo at 200 mg/kg/day (tissue cholesterol): < 15%
- change in vivo at 200 mg/kg/day (lipid metabolism; read-out: Serum Chol. α/β (% control values)): < 15%
- change in vivo at 200 mg/kg/day (lipid metabolism; read-out: Serum Free Fatty Acids (% control values)): < 15%
- change in vivo at 200 mg/kg/day (lipid metabolism; read-out: Serum Phospholipids (% control values)): -34%
- change in vivo at 200 mg/kg/day (lipid metabolism; read-out: Serum Triglycerides (% control values)): 19%
- decrease of plasma phospholipids (lipid metabolism; rats, comparison): 33.6%
- decrease of α/β ratio (lipid metabolism; rats, comparison): 52.2%
